Test results: US20140294967A1, “STABLE NANOCOMPOSITION COMPRISING PACLITAXEL, PROCESS FOR THE PREPARATION THEREOF, ITS USE AND PHARMACEUTICAL COMPOSITIONS CONTAINING IT” (BBS Nanotechnology Llc., priority 2013, published 2014)

Tests used:
[1] = body weight of mice during the SK-OV-3 xenograft efficacy study; type: in vivo, SCID mice; settings: 5 mg/kg, six i.v. injections; 62nd day after tumor inoculation; mean ± STDEV of five mice
Experimental: (§1) The table above illustrates the comparative efficacy study in SK-OV-3 s.c. xenograft SCID mouse model of ovary cancer. Tumor was induced in mice by implanting SK-OV-3 human ovary adenocarcinoma cells s.c. in upper region of back of SCID mice and allowing the tumors to develop to appreciable size over 24 days (70 mm3). The comparative efficacy study of six i.v. injection (day 24, 31, 38, 44, 51 and 58) of 5% glucose, paclitaxel (PACL) 5 mg/kg, NP-PACL 5 mg/kg and NP-PACL-OCT 1.7 mg/kg) was evaluated over 72 days. In this table there are: change in tumor volume of mice on 62nd day after tumor inoculation (data represent mean %±SEM of five mice per group), change in body weight of mice on 62nd day after tumor inoculation (Data represent mean±STDEV of five mice per group) and survival proportion at the end of the experiment.

[2] = system: SK-OV-3 human ovary adenocarcinoma cells; test: comparative efficacy study in SK-OV-3 s.c. xenograft SCID mouse model of ovary cancer; type: in vivo, SCID mice; settings: 5 mg/kg
Experimental: as §1

In the case of `CC(=O)O[C@H]1C(=O)[C@@]2(C)[C@H]([C@H](OC(=O)c3ccccc3)[C@]3(O)C[C@H](OC(=O)[C@H](O)[C@@H](NC(=O)c4ccccc4)c4ccccc4)C(C)=C1C3(C)C)[C@]1(OC(C)=O)CO[C@@H]1C[C@@H]2O` [PACL, (2α,4α,5β,7β,10β,13α)-4,10-bis(acetyloxy)-13-{[(2R,3S)-3-(benzoylamino)-2-hydroxy-3-phenylpropanoyl]oxy}-1,7-dihydroxy-9-oxo-5,20-epoxytax-11-en-2-yl benzoate], the “Change in body weight during the treatment (weight at start: 100%)” value [1] is reported as 99% ± 5%, the “Change in tumor volume (control: 100%)” value ([2]; six i.v. injections (day 24, 31, 38, 44, 51, 58), 62nd day after tumor inoculation, mean % ± SEM of five mice) is reported as 86% ± 13% and the “Survival proportion at the end of the experiment” value ([2]; six i.v. injections, evaluated over 72 days, five mice per group) is reported as 60%.
